Measured values published in article PMC6430017, “Structural and chemical insights into the covalent-allosteric inhibition of the protein kinase Akt” (Chemical Science, 2019).

What was measured:
Assay in all cases: SelectScreen Z'LYTE kinase profiling
Type in all cases: biochemical
Settings in all cases: ATP at apparent KM
[1] = biological target: T1, PRKCE (PKC epsilon) (Homo sapiens, UniProt Q02156)
T1 sequence (Q02156 1-737): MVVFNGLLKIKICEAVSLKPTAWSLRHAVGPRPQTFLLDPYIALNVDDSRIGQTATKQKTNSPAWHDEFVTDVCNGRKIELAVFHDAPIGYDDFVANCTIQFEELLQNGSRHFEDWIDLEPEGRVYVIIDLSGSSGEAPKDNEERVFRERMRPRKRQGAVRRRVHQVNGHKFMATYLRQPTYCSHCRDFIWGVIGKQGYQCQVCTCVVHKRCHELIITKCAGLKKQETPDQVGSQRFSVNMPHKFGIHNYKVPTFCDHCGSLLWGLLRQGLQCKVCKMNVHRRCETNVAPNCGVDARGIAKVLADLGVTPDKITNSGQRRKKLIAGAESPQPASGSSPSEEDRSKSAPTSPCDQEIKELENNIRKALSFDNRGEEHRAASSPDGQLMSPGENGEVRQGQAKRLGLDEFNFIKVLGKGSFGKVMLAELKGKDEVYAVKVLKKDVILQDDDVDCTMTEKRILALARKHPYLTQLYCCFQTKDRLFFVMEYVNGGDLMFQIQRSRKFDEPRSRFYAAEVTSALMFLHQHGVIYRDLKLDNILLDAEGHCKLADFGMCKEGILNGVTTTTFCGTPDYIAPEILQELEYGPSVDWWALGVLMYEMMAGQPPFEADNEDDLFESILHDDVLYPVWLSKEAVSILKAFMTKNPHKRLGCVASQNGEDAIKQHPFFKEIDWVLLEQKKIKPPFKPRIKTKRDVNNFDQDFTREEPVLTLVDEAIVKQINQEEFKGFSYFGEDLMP
Procedure: (§1) protein kinases at a compound concentration of 1 µM. Measurements were performed in duplicates
(§2) and at the particular apparent ATP KM of each individual kinase employing the activity based Z’LYTE®
(§3) kinase assay of the SelectScreen® Kinase Profiling Services (ThermoFisher Scientific).
(§4) kinases at a compound concentration of 1 µM. Measurements were performed in duplicates and at
(§5) the particular apparent ATP KM of each individual kinase employing the activity based Z’LYTE® kinase
(§6) assay of the SelectScreen® Kinase Profiling Services (ThermoFisher Scientific).

[2] = biological target: T2, PRKCZ (PKC zeta) (Homo sapiens, UniProt Q05513)
T2 sequence (Q05513 1-592): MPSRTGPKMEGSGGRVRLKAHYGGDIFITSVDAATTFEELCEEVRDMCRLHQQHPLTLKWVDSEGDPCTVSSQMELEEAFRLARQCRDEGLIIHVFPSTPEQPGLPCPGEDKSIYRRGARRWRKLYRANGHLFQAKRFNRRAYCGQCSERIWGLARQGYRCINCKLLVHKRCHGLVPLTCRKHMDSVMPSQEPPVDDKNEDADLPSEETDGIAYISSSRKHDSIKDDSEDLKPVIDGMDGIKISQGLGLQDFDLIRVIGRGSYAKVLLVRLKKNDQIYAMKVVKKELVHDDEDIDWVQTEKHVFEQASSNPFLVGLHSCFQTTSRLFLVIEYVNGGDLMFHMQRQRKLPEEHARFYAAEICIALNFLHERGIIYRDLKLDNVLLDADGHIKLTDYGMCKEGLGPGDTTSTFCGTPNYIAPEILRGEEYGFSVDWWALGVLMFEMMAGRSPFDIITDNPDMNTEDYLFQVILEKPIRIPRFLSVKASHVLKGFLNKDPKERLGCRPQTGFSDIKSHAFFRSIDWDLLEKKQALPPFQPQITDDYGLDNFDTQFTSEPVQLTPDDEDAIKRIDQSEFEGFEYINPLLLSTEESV
Procedure: as §1, §2, §3, §4, §5, §6

[3] = biological target: T3, AURKA (Aurora A) (Homo sapiens, UniProt O14965)
T3 sequence (O14965 1-403): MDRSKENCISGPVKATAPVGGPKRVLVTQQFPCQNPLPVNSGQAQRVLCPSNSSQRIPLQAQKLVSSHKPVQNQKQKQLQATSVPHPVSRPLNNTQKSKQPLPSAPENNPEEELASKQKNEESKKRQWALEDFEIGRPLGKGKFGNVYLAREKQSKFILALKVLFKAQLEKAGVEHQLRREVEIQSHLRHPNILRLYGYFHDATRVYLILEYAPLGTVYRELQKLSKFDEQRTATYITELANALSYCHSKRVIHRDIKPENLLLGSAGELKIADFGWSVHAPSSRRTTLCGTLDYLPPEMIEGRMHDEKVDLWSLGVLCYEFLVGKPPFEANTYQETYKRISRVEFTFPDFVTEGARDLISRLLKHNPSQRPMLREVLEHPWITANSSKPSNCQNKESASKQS
Procedure: as §1, §2, §3, §4, §5, §6

[4] = biological target: RPS6KA3 (RSK2) (Homo sapiens, UniProt P51812)
Procedure: as §1, §2, §3, §4, §5, §6

[5] = biological target: MAPK1 (ERK2) (Homo sapiens, UniProt P28482)
Procedure: as §1, §2, §3, §4, §5, §6

[6] = biological target: ABL1 (Homo sapiens, UniProt P00519)
Procedure: as §1, §2, §3, §4, §5, §6

[7] = biological target: CDC42 BPB (MRCKB) (Homo sapiens, UniProt Q9Y5S2)
Procedure: as §1, §2, §3, §4, §5, §6

[8] = biological target: RPS6KB1 (p70S6K) (Homo sapiens, UniProt P23443)
Chain of RPS6KB1 (p70S6K) (P23443 whole entry): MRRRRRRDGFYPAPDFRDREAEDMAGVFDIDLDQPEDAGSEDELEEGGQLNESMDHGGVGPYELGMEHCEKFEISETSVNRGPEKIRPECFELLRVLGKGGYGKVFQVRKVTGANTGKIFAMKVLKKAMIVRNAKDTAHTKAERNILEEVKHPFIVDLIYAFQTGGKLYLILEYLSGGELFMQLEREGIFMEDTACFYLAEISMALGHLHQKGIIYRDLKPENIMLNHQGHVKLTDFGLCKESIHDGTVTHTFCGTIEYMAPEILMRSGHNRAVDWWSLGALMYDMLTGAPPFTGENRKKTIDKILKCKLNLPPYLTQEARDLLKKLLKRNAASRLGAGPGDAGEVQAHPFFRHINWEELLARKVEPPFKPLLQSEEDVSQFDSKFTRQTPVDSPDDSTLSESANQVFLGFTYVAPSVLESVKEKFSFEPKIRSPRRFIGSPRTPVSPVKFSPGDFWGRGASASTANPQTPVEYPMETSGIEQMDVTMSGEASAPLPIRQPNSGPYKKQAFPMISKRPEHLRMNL

Chain of MAPK1 (ERK2) (P28482 whole entry): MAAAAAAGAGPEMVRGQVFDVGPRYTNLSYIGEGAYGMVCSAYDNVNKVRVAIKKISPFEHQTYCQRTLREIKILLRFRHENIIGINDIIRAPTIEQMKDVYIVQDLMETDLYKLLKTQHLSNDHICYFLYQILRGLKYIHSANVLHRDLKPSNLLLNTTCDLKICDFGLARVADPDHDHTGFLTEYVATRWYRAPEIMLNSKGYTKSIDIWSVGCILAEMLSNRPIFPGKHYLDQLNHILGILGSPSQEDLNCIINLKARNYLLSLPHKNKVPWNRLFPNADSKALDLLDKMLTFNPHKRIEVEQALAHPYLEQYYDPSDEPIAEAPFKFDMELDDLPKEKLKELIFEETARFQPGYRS
Chain of ABL1 (P00519 whole entry): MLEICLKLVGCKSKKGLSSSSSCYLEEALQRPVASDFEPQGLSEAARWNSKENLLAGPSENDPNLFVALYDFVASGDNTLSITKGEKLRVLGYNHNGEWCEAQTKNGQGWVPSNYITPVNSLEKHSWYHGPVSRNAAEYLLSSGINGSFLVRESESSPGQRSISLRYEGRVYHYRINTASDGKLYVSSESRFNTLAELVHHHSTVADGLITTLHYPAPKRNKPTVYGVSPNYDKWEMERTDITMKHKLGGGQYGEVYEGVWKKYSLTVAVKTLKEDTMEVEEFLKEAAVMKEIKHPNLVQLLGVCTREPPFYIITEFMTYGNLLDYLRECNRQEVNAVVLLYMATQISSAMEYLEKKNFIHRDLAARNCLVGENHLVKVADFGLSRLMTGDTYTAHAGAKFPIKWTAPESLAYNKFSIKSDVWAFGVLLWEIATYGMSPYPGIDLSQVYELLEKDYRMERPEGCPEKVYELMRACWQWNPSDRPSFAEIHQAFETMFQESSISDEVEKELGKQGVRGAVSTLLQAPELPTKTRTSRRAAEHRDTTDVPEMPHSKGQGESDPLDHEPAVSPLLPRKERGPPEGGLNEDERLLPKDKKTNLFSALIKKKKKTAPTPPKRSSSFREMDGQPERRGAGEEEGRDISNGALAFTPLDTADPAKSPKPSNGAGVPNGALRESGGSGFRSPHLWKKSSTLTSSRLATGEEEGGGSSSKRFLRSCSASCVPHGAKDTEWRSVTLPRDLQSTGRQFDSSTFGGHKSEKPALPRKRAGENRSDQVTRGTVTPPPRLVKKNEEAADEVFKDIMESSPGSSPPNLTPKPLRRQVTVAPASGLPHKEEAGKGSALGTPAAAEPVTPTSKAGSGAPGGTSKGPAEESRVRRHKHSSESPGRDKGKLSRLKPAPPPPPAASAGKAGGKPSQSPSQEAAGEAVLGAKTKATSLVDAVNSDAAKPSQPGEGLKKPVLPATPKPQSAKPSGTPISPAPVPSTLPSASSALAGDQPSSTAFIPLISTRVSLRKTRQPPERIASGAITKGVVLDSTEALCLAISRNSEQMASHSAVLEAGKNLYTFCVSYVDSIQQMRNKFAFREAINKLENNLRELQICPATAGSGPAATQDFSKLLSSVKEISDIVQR
Chain of CDC42 BPB (MRCKB) (Q9Y5S2 whole entry): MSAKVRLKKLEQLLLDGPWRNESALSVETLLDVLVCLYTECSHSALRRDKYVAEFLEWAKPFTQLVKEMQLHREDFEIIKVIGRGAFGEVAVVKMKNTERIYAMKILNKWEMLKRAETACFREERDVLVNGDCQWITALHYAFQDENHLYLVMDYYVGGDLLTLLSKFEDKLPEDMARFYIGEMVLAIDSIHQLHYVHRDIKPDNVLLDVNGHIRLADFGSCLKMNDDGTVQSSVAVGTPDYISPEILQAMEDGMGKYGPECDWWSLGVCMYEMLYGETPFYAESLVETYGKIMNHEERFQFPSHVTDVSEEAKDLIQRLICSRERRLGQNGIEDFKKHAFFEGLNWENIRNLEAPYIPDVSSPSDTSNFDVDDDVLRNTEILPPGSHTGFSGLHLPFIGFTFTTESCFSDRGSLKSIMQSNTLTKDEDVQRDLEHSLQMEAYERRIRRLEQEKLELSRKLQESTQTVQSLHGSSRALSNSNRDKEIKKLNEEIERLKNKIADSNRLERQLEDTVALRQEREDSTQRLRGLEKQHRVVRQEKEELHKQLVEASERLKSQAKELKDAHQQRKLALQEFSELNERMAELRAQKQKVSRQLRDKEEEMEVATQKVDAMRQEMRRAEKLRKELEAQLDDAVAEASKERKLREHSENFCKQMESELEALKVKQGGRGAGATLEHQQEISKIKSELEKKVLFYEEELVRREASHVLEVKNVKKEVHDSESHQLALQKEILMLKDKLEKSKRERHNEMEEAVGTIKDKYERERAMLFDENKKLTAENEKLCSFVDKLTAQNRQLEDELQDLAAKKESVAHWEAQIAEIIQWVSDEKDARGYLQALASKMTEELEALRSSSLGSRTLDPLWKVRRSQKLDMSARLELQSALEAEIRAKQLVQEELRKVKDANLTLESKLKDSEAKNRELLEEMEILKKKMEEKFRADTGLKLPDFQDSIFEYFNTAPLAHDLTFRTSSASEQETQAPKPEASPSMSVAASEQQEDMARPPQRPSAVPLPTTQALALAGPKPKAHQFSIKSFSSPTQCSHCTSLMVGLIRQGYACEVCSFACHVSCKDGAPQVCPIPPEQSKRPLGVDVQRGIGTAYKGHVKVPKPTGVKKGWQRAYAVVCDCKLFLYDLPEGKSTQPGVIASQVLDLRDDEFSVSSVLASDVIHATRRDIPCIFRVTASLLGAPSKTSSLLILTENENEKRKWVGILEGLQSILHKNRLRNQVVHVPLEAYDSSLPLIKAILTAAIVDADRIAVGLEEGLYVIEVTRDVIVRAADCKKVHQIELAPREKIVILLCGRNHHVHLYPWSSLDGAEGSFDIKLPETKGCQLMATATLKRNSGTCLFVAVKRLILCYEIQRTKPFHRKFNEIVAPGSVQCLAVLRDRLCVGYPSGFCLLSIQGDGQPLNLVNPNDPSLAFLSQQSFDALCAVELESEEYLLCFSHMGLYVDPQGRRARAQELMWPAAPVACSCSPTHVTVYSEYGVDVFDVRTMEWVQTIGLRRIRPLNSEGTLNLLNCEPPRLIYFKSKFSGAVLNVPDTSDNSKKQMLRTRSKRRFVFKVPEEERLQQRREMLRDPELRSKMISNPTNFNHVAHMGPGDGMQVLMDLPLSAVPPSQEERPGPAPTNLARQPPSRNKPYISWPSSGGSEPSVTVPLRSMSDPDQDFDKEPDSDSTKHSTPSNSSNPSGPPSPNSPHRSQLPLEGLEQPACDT
Chain of RPS6KA3 (RSK2) (P51812 whole entry): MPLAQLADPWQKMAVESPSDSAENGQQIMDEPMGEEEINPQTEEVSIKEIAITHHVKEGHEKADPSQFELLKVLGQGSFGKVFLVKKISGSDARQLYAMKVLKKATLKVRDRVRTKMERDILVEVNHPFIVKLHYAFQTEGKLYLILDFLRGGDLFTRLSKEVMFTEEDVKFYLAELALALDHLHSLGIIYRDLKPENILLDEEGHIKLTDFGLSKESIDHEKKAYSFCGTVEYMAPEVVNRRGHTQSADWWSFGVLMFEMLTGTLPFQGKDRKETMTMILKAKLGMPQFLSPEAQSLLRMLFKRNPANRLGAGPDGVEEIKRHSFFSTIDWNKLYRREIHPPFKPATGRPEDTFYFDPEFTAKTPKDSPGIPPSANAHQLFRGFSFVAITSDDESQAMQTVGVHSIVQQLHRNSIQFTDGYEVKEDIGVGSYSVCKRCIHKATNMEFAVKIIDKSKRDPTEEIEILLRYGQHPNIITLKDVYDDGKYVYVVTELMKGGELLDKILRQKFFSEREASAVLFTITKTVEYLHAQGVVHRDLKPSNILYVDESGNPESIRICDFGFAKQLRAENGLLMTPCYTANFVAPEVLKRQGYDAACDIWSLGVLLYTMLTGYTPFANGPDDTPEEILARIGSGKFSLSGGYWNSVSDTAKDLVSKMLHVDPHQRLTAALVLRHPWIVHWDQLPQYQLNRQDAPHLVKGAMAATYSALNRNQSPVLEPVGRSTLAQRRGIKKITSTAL

For `C=CC(=O)Nc1ccc2c(c1)n(C1CCN(Cc3ccc(-c4nc5cc[nH]c(=O)c5cc4-c4ccccc4)cc3)CC1)c(=O)n2C` [24b], the inhibition at 1 µM [1] was 12%, the inhibition at 1 µM [2] was -3% and the inhibition at 1 µM [3] was 7%. The inhibition at 1 µM [4] was 14%, the inhibition at 1 µM [5] was 2% and the inhibition at 1 µM [6] was 2%. It also gave an inhibition at 1 µM [7] of 3% and an inhibition at 1 µM [8] of 32%.

`C=CC(=O)Nc1cccc(C(=O)NC2CCN(Cc3ccc(-c4nc5cc[nH]c(=O)c5cc4-c4ccccc4)cc3)CC2)c1` [30b] was tested, and the inhibition at 1 µM [1] was 27%, the inhibition at 1 µM [2] was -4% and the inhibition at 1 µM [3] was 22%. For the same molecule, the inhibition at 1 µM [4] was 30%, the inhibition at 1 µM [5] was 13% and the inhibition at 1 µM [6] was 3%. For the same molecule, the inhibition at 1 µM [7] was -27% and the inhibition at 1 µM [8] was 8%.

In the case of `C=CC(=O)Nc1cc(NC(=O)NC2CCN(Cc3ccc(-c4nc5cc[nH]c(=O)c5cc4-c4ccccc4)cc3)CC2)ccc1Cl` [compound 27], the inhibition at 1 µM [1] is reported as 11%, the inhibition at 1 µM [2] is reported as -14% and the inhibition at 1 µM [3] is reported as 10%. The inhibition at 1 µM [4] was 23%, the inhibition at 1 µM [5] was 11% and the inhibition at 1 µM [6] was 3%. It also gave an inhibition at 1 µM [7] of 12% and an inhibition at 1 µM [8] of 29%.
